# How the values were obtained:
# [1] = system: Candida albicans; experiment: Antimicrobial activity against Candida albicans 7535 after 20 hrs by two-fold serial dilution technique; assay type: functional; conditions: Candida albicans, 7535, 20 h
# [2] = system: Escherichia coli; experiment: Antimicrobial activity against Escherichia coli KCTC 1924 after 20 hrs by two-fold serial dilution technique; assay type: functional; conditions: KCTC 1924, 20 h
# [3] = system: Salmonella typhimurium; experiment: Antimicrobial activity against Salmonella typhimurium 2421 after 20 hrs by two-fold serial dilution technique; assay type: functional, Salmonella enterica subsp. enterica serovar Typhimurium; conditions: Salmonella enterica, 2421, 20 h
# [4] = system: Staphylococcus aureus; experiment: Antimicrobial activity against quinolone-resistant Staphylococcus aureus clinical isolate 3505 after 20 hrs by two-fold serial dilution technique; assay type: functional; conditions: isolate 3505, 20 h
# [5] = system: Pseudomonas aeruginosa; experiment: Antimicrobial activity against Pseudomonas aeruginosa 2742 after 20 hrs by two-fold serial dilution technique; assay type: functional; conditions: Pseudomonas aeruginosa, 2742, 20 h
# [6] = system: Salmonella typhimurium; experiment: Antimicrobial activity against Salmonella typhimurium 1926 after 20 hrs by two-fold serial dilution technique; assay type: functional, Salmonella enterica subsp. enterica serovar Typhimurium; conditions: Salmonella enterica, 1926, 20 h
# [7] = system: Pseudomonas aeruginosa; experiment: Antimicrobial activity against Pseudomonas aeruginosa 2004 after 20 hrs by two-fold serial dilution technique; assay type: functional; conditions: Pseudomonas aeruginosa, 2004, 20 h
# [8] = system: Streptococcus mutans; experiment: Antimicrobial activity against Streptococcus mutans 3065 after 20 hrs by two-fold serial dilution technique; assay type: functional; conditions: Streptococcus mutans, 3065, 20 h
# [9] = system: Staphylococcus aureus; experiment: Antimicrobial activity against Staphylococcus aureus RN4220 after 20 hrs by two-fold serial dilution technique; assay type: functional; conditions: RN4220, 20 h
# [10] = system: Staphylococcus aureus; experiment: Antimicrobial activity against Staphylococcus aureus 209 after 20 hrs by two-fold serial dilution technique; assay type: functional; conditions: Staphylococcus aureus, 209, 20 h
# [11] = system: Escherichia coli; experiment: Antimicrobial activity against Escherichia coli CCARM 1356 after 20 hrs by two-fold serial dilution technique; assay type: functional; conditions: CCARM 1356, 20 h
# [12] = system: Staphylococcus aureus; experiment: Antimicrobial activity against methicillin-resistant Staphylococcus aureus clinical isolate 3167 after 20 hrs by two-fold serial dilution technique; assay type: functional; conditions: isolate 3167, 20 h
# [13] = system: Staphylococcus aureus; experiment: Antimicrobial activity against quinolone-resistant Staphylococcus aureus clinical isolate 3519 after 20 hrs by two-fold serial dilution technique; assay type: functional; conditions: isolate 3519, 20 h
# [14] = system: Staphylococcus aureus; experiment: Antimicrobial activity against methicillin-resistant Staphylococcus aureus clinical isolate 3506 after 20 hrs by two-fold serial dilution technique; assay type: functional; conditions: isolate 3506, 20 h
# [15] = system: Staphylococcus aureus; experiment: Antimicrobial activity against Staphylococcus aureus 503 after 20 hrs by two-fold serial dilution technique; assay type: functional; conditions: Staphylococcus aureus, 503, 20 h
Compound,MIC [1],MIC [2],MIC [3],MIC [4],MIC [5],MIC [6],MIC [7],MIC [8],MIC [9],MIC [10],MIC [11],MIC [12],MIC [13],MIC [14],MIC [15]
O=C1CSC(=S)N1[C@@H](Cc1ccccc1)c1nnc(-c2ccccc2)o1,> 64 mg/L,> 128 mg/L,> 128 mg/L,16 mg/L,> 128 mg/L,> 128 mg/L,> 128 mg/L,8 mg/L,16 mg/L,> 64 mg/L,> 128 mg/L,16 mg/L,16 mg/L,16 mg/L,> 64 mg/L
Cc1cccc(-c2nnc([C@H](Cc3ccccc3)N3C(=O)/C(=C/c4ccc(C(=O)O)cc4)SC3=S)o2)c1,> 64 mg/L,> 128 mg/L,> 128 mg/L,2 mg/L,> 128 mg/L,> 128 mg/L,> 128 mg/L,4 mg/L,2 mg/L,> 64 mg/L,> 128 mg/L,2 mg/L,4 mg/L,4 mg/L,> 64 mg/L
O=C(O)c1ccc(/C=C2\SC(=S)N([C@@H](Cc3ccccc3)c3nnc(-c4cccc(Cl)c4)o3)C2=O)cc1,> 64 mg/L,> 128 mg/L,> 128 mg/L,2 mg/L,> 128 mg/L,> 128 mg/L,> 128 mg/L,2 mg/L,2 mg/L,> 64 mg/L,> 128 mg/L,2 mg/L,4 mg/L,4 mg/L,> 64 mg/L
O=C(O)c1ccc(/C=C2\SC(=S)N([C@@H](Cc3ccccc3)c3nnc(-c4cccc(Br)c4)o3)C2=O)cc1,> 64 mg/L,> 128 mg/L,> 128 mg/L,2 mg/L,> 128 mg/L,> 128 mg/L,> 128 mg/L,1 mg/L,2 mg/L,> 64 mg/L,> 128 mg/L,1 mg/L,2 mg/L,1 mg/L,> 64 mg/L
O=C1CSC(=S)N1Cc1nnc(-c2cccc(Br)c2)o1,32 mg/L,16 mg/L,128 mg/L,32 mg/L,> 128 mg/L,32 mg/L,> 128 mg/L,16 mg/L,32 mg/L,16 mg/L,> 128 mg/L,16 mg/L,32 mg/L,32 mg/L,32 mg/L
